Assay results from ChEMBL document CHEMBL1159274, “Spiganthine, the cardioactive principle of Spigelia anthelmia” (J Nat Prod, 1995).
pEC50: −log10 of the molar value.

Columns and labels:
[1] = (§1) Induction of delay in contraction development in electrically-stimulated guinea pig heart ventricular papillary muscle at contraction frequency of 1 Hz; type: functional, tissue-based; details: Cavia porcellus, Muscle tissue
Cavia porcellus = species on record: Cavia porcellus; test: as §1; type: functional, tissue-based; details: Muscle tissue

Row | pEC50 [1] | SMILES | Activity (Cavia porcellus) | minimal effective concentration ([1]; read-out: MEC) [µM]
1 | 7.22 | CC(C)[C@@]1(O)[C@@H](OC(=O)c2cc[nH]c2)[C@@]2(O)[C@@]3(CO)C[C@]4(O)O[C@@]5([C@H](O)[C@@H](C)CC[C@]35O)[C@@]2(O)[C@]14C [SPIGANTHINE] | Dose-dependent effect | –
2 | – | CC(C)[C@@]1(O)[C@@H](OC(=O)c2cc[nH]c2)[C@@]2(O)[C@]3(C)C[C@@]4(O)O[C@@]5([C@H](O)[C@@H](C)CC[C@]35O)[C@@]2(O)[C@@]41C [RYANODINE] | – | 0.0165
